Assays:
[1] = In vitro hemolytic potential with dog erythrocytes, phosphate buffer vehicle (Example 1); assay type: cell-based; conditions: dog, whole blood, n=5 (mean), percentage of that induced by saponin
Experimental: (§1) The following study was performed to evaluate the hemolytic potential of solutions of (2R)-2-[4-(7-bromo-2-quinolyloxy)phenoxy]propanoic acid in a 0.1 M pH 8 phosphate bufferred vehicle at concentrations of 10 mg/mL and 20 mg/mL. Saline (0.9% NaCl) was used as a negative control, and saponin (3% aqueous solution), which is a known inducer of hemolysis, was used as the positive control.
(§2) Dog whole blood was mixed in a 1:1 ratio and a 9:1 ratio with solutions of the active ingredient in the vehicle and with the vehicles alone. Dog whole blood was also mixed in a 1:1 ratio and a 9:1 ratio with a 3% saponin solution as the positive control and saline (0.9% NaCl) as the negative control.
(§3) After mixing, tubes were incubated for 30 minutes at 37°C, then centrifuged (3000 t/min.) for 10 minutes. Hemoglobin concentrate was dosed in the supernatant by spectrophotometry UV/visible (Genesis technologies) for the assessment of the in vitro hemolytic potential. The percent of hemolysis was calculated based on the results of the saponin samples.

[2] = tested on: dog erythrocytes; experiment: as above; assay type: cell-based; conditions: 10 and 20 mg/mL solutions in 0.1 M pH 8 phosphate buffer
Experimental: as §1, §2, §3

[3] = tested on: dog erythrocytes; experiment: In vitro hemolytic potential in dog erythrocytes for a formulation containing a cyclodextrin (Example 4); assay type: cell-based; conditions: 10 mg/mL Active Ingredient in 0.05M pH 7 phosphate buffer with 10% (w/v) hydroxypropyl beta cyclodextrin, n=6 (mean), percentage of that induced by saponin, 30 min
Experimental: Saline (0.9% NaCl) was used as the negative control, and saponin (3% aqueous solution) was used as the positive control.
as §2, §3

[4] = In vivo study in dogs with phosphate buffer formulation, 30-minute infusion (Example 6); set-up: species or system beagle dog; conditions: 0.1M phosphate buffer, single IV infusion over 30 minutes, 1 male and 1 female
Experimental: Dosages were 25 and 50 mg/kg. Sampling for plasma level determination was taken for 1 day at the following intervals: end of infusion (0), 30 minutes, 1 hour, 3 hours, 6 hours, and 24 hours after the end of the infusion.

[5] = In vivo study in rats with phosphate buffer formulation, 1-hour infusion (Example 7); conditions: 400 mg/kg dose, 0.1M phosphate buffer, single IV infusion over 1 hour, day of the infusion
Experimental: Dosages were 0 (control), 100, 200, and 400 mg/kg.

[6] = Preliminary animal toxicological studies, infusion of simple phosphate buffer formulation; assay type: in vivo; conditions: infused at 10 mg/mL or greater as a simple phosphate buffer formulation
Text: (2R)-2-[4-(7-Bromo-2-quinolyloxy)phenoxy]propanoic acid may be administered as a liquid parenteral formulation. […] Since significant hemolysis can cause anemia, the hemolytic effect of (2R)-2-[4-(7-bromo-2-quinolyloxy)phenoxy]propanoic acid is an undesirable property for a pharmaceutical composition.

## C[C@@H](Oc1ccc(Oc2ccc3ccc(Br)cc3n2)cc1)C(=O)O [Active Ingredient, (2R)-2-[4-(7-bromo-2-quinolyloxy)phenoxy]propanoic acid]
[1]; pH 8, 10 mg/mL Active Ingredient in 0.1 M pH 8 phosphate buffer, Blood/Solution ratio 1:1
  hemolysis at 0.5 h: 24%
[1]; pH 8, 10 mg/mL Active Ingredient in 0.1 M pH 8 phosphate buffer, Blood/Solution ratio 9:1
  hemolysis at 0.5 h: 4.5%
[1]; pH 8, 20 mg/mL Active Ingredient in 0.1 M pH 8 phosphate buffer, Blood/Solution ratio 1:1
  hemolysis at 0.5 h: 28%
[1]; pH 8, 20 mg/mL Active Ingredient in 0.1 M pH 8 phosphate buffer, Blood/Solution ratio 9:1
  hemolysis at 0.5 h: 6.6%
[2]
  hemolysis of dog erythrocytes (result in words): induced hemolysis
[3]; Blood/Solution ratio 1:1
  Percentage of Hemolysis: 1.8%
[3]; Blood/Solution ratio 9:1
  Percentage of Hemolysis: 0.5%
[4]; 25 mg/kg, seen at time 0 and 30 minutes post infusion (all animals), 1 hour (male)
  visual hemolysis on plasma samples: visual hemolysis was observed
[4]; 50 mg/kg, seen at time 0, 30 minutes, 1 hour, 3 hours (both animals) and 6 hours (female)
  visual hemolysis on plasma samples: visual hemolysis was observed
[5]; females
  discolored urine (red/brown), animals affected: 8 out of 10
[5]; males
  discolored urine (red/brown), animals affected: 6 out of 10
[6]
  hemolysis: cause a degree of hemolysis

— patent EP1897542A1, “Aqueous formulation comprising an antitumor agent” (Sanofi-Aventis, priority 2006, dated 2008)
